Test results reported in patent US9504747B2, “Lipids and lipid compositions for the delivery of active agents” (Novartis AG, priority 2013, dated 2016).

How the values were obtained:
[1] = pKa measurement of the cationic lipid (TNS fluorescence vs pH); type: physicochemical; conditions: probe TNS (fluorescent probe), Table 4; pKa of the cationic lipid of formula (I)
Experimental: Unless indicated otherwise, all pKa's referred to herein were measured at standard temperature and pressure. Also, unless otherwise indicated, all references to pKa are references to pKa measured using the following technique. 2 mM solution of lipid in ethanol was prepared by weighing the lipid and then dissolving it in ethanol. 0.3 mM solution of fluorescent probe TNS in ethanol:methanol 9:1 was prepared by first making 3 mM solution of TNS in methanol and then diluting to 0.3 mM with ethanol. An aqueous buffer containing 200 mM sodium phosphate dibasic and 100 mM citric acid was prepared. […] Using the Hamilton Microlab Star high throughput liquid handler and Hamilton run control software Software, 7.5 uL of probe/lipid mix were added to 242.5 uL of buffer in a 1 mL 96 well plate (model NUNC 260252, […] Nunc International). This was done with all twelve buffers. After mixing in 1 mL 96 well plate, 100 uL of each probe/lipid/buffer mixture was transferred to a 250 uL black with clear bottom 96 well plate (model COSTAR 3904, Corning). The fluorescence measurements are carried out on the SpectraMax M5 spectrophotometer using software SoftMax pro 5.2 and following parameters: After the measurement, the background fluorescence value of an empty well on the 96 well plate was subtracted from each probe/lipid/buffer mixture. The fluorescence intensity values were then normalized to the value at lowest pH. The normalized fluorescence intensity vs. pH chart was then plotted in the Microsoft Excel software. The twelve points were connected with a smooth line. The point on the line at which the normalized fluorescence intensity was equal to 0.5 was found. […] The pKa determined using this method is precise to about 0.1 pKa units.

[2] = test system: respiratory syncytial virus F protein; test: Immunization studies: anti-RSV-F titers after liposome-delivered vA317 self-replicating RNA; type: in vivo; conditions: BALB/c mice, Course A = days 0 & 21, liposomes with 0.1 μg vA317 replicon (naked control 1 μg)
Experimental: BALB/c were immunized with liposomes comprising DSPC, cholesterol, and various lipids of the invention (or, for comparison, the cationic lipid 1,2-dilinoleyloxy-N,N-dimethyl-3-aminopropane or ‘DLinDMA’). The liposomes encapsulated 0.1 μg of “vA317” self-replicating RNA replicon which encodes respiratory syncytial virus F protein (see WO2012/031043). […] Doses were given either on days 0 & 21 or days 0 & 42. Immune responses were assessed 2 weeks after each dose (2wp1, 2wp2), and in some cases also at 4 weeks after the second dose (4wp2). Four series of experiments were performed, each with its own naked control.

[3] = Particle size of the lipid nanoparticle (dynamic light scattering, Malvern Zetasizer); type: physicochemical; conditions: Table 4, FVII siRNA LNP, Z-average
Excerpt: (§1) The lipid nanoparticles have a size of about 1 to about 2,500 nm, about 1 to about 1,500 nm, about 1 to about 1,000 nm, in a sub-embodiment about 50 to about 600 nm, in a sub-embodiment about 50 to about 400 nm, in a sub-embodiment about 50 to about 250 nm, and in a sub-embodiment about 50 to about 150 nm. Unless indicated otherwise, all sizes referred to herein are the average sizes (diameters) of the fully formed nanoparticle, as measured by dynamic light scattering on a Malvern Zetasizer. The nanoparticle sample is diluted in phosphate buffered saline (PBS) so that the count rate is approximately 200-400 kcts. The data is presented as a weighted average of the intensity measure. The lipid nanoparticles (LNPs) were formed by mixing equal volumes of lipids dissolved in alcohol with siRNA dissolved in a citrate buffer by an impinging jet process. […] The siRNA to total lipid ratio is approximately 0.05 (wt/wt). Where a LNP formulation contains four lipid components, the molar ratios correspond to the type of lipid as it appears in the first four columns of the table, in the order that they appear. The ratio of the lipids ranges from 20 to 70 mole percent for the cationic lipid with a target of 40-60, the mole percent of helper lipid ranges from 20 to 70 with a target of 30 to 50, the mole percent of neutral lipid ranges from 0-30, the mole percent of PEG lipid has a range from 1 to 6 with a target of 2 to 5. The concentration of siRNA solution ranges from 0.7 to 1.0 mg/mL with a target of 0.8 to 0.9 mg/mL in a sodium citrate: sodium chloride buffer pH 4-6, with a target of 4.5-5.5. The LNPs are formed by mixing equal volumes of lipid solution in ethanol with siRNA dissolved in a citrate buffer by an impinging jet process through a mixing device with ID ranging from 0.25 to 2.0 mm at a flow rate from 10 to 640 mL/min. The mixed LNP solution is held at room temperature for 0-24 hrs prior to a dilution step. […] The final product is sterile filtered and stored at 4° C. Unless indicated otherwise, all particle size measurements referred to in Tables 4 and 5 are the Z-average particle size of the fully formed nanoparticle, as measured by dynamic light scattering on a Malvern Zetasizer. The nanoparticle sample was diluted in phosphate buffered saline (PBS) so that the count rate is approximately 200-400 kcts.

[4] = Polydispersity index (PDI) of the lipid nanoparticle (dynamic light scattering); type: physicochemical; conditions: Table 4, FVII siRNA LNP
Excerpt: as §1, with “The” for “The lipid nanoparticles have a size of about 1 to about 2,500 nm, about 1 to about 1,500 nm, about 1 to about 1,000 nm, in a sub-embodiment about 50 to about 600 nm, in a sub-embodiment about 50 to about 400 nm, in a sub-embodiment about 50 to about 250 nm, and in a sub-embodiment about 50 to about 150 nm. Unless indicated otherwise, all sizes referred to herein are the average sizes (diameters) of the fully formed nanoparticle, as measured by dynamic light scattering on a Malvern Zetasizer. The nanoparticle sample is diluted in phosphate buffered saline (PBS) so that the count rate is approximately 200-400 kcts. The data is presented as a weighted average of the intensity measure. The”, “all PDIs” for “all particle size measurements”, “to herein” for “to in Tables 4 and 5”, “the PDI” for “the Z-average particle size”, “rate was” for “rate is”, “kcts. The data is presented in Tables 4 and 5 as a weighted average of the intensity measure.” for “kcts.”

[5] = Chol/DSPC/stealth lipid S010, molar ratio 45/44/9/2
[6] = Chol/DSPC/stealth lipid S010, 45/44/9/2
[7] = Chol/DSPC/stealth lipid PEG-DMG, molar ratio 45/44/9/2
[8] = Chol/DSPC/stealth lipid PEG-DMG, 45/44/9/2

Row | pKa [1] | Size (nm) [3, 5] [nm] | PDI [4, 6] | Size (nm) [3, 7] [nm] | PDI [4, 8] | SMILES | anti-RSV-F titer 2wp1 pool 1 ([2]; 2 weeks after first dose) | anti-RSV-F titer 2wp1 pool 2 ([2]; 2 weeks after first dose) | anti-RSV-F titer 2wp2 pool 1 ([2]; 2 weeks after second dose) | anti-RSV-F titer 2wp2 pool 2 ([2]; 2 weeks after second dose) | anti-RSV-F titer 4wp2 pool 1 ([2]; 4 weeks after second dose) | anti-RSV-F titer 4wp2 pool 2 ([2]; 4 weeks after second dose)
1 | 5.66 | 172.9 | 0.077 | – | – | CCCCCC(=O)OCCCCCCCCCCOc1cc(CN(C)C)cc(OCCCCCCCCCCOC(=O)CCCCC)c1 [Example 44] | – | – | – | – | – | –
2 | 5.83 | 170.7 | 0.119 | – | – | CCCCCC(=O)OCCCCCCCCOc1cc(CN(C)C)cc(OCCCCCCCCOC(=O)CCCCC)c1 [Example 41] | – | – | – | – | – | –
3 | 5.95 | 113.8 | 0.036 | 126.0 | 0.06 | CCCCCCCCCCCCC(=O)OCc1cc(COC(=O)CCCCCCCCCCCC)cc(CN(C)C)c1 [Example 34] | – | – | – | – | – | –
4 | 6.07 | 125.9 | 0.035 | 109.3 | 0.06 | CCCCCCCCCC(=O)OCCCCCCOc1cc(CN(C)C)cc(OCCCCCCOC(=O)CCCCCCCCC)c1 [Example 47] | – | – | – | – | – | –
5 | 6.03 | 119.2 | 0.064 | – | – | CCCCC/C=C\C/C=C\CCCCCCCC(=O)OCCCC(=O)OCc1cc(COC(=O)CCCOC(=O)CCCCCCC/C=C\C/C=C\CCCCC)cc(CN(C)C)c1 [Example 82] | – | – | – | – | – | –
6 | 6.07 | 159.2 | 0.089 | – | – | CCCCCCCC(=O)OCCCCCCCC(=O)OCc1cc(COC(=O)CCCCCCCOC(=O)CCCCCCC)cc(CN(C)C)c1 [Example 87] | – | – | – | – | – | –
7 | 5.71 | 197.3 | 0.14 | – | – | CCCCCCCCCC(=O)OCCCC(=O)OCCCOc1cc(CN(C)C)cc(OCCCOC(=O)CCCOC(=O)CCCCCCCCC)c1 [Example 96] | – | – | – | – | – | –
8 | 5.93 | 152.3 | 0.105 | – | – | CCCCCCCC(=O)OCCCCCCOc1cc(CN(C)C)cc(OCCCCCCOC(=O)CCCCCCC)c1 [Example 48] | – | – | – | – | – | –
9 | 5.99 | 152.4 | 0.046 | – | – | CCCCCCCCCC(=O)OCCCCCC(=O)OCc1cc(COC(=O)CCCCCOC(=O)CCCCCCCCC)cc(CN(C)C)c1 [Example 88] | – | – | – | – | – | –

Second part, the molecule before the results:

Row | SMILES | pKa [1] | Size (nm) [3, 5] [nm] | PDI [4, 6] | Size (nm) [3, 7] [nm] | PDI [4, 8] | anti-RSV-F titer 2wp1 pool 1 ([2]; 2 weeks after first dose) | anti-RSV-F titer 2wp1 pool 2 ([2]; 2 weeks after first dose) | anti-RSV-F titer 2wp2 pool 1 ([2]; 2 weeks after second dose) | anti-RSV-F titer 2wp2 pool 2 ([2]; 2 weeks after second dose) | anti-RSV-F titer 4wp2 pool 1 ([2]; 4 weeks after second dose) | anti-RSV-F titer 4wp2 pool 2 ([2]; 4 weeks after second dose)
10 | CCCCC/C=C\C/C=C\CCCCCCCC(=O)OCc1cc(COC(=O)CCCCCCC/C=C\C/C=C\CCCCC)cc(COC(=O)OCCCN(CC)CC)c1 [Example 69] | 5.3 | 98.13 | 0.053 | – | – | 2853 | 4481 | 23851 | 20793 | 19075 | 21504
11 | CCCCCCCCCCCC(=O)OCCCCCCCCOc1cc(CN(C)C)cc(OCCCCCCCCOC(=O)CCCCCCCCCCC)c1 [Example 53] | 6.03 | 113.3 | 0.079 | 129.1 | 0.1 | – | – | – | – | – | –
12 | CCCCCCCC(=O)OC[C@@H](CCOc1cc(CN(C)C)cc(OCC[C@@H](COC(=O)CCCCCCC)OC(=O)CCCCCCC)c1)OC(=O)CCCCCCC [Example 92] | 5.92 | 117.3 | 0.065 | – | – | – | – | – | – | – | –
13 | CCC/C=C\CCCCCCC(=O)OCCCCCCOc1cc(CN(C)C)cc(OCCCCCCOC(=O)CCCCCC/C=C\CCC)c1 [Example 50] | 5.92 | 126 | 0.056 | – | – | – | – | – | – | – | –
14 | CCCCCCCC(=O)OCCCCCCCCCCOc1cc(CN(CC)CC)cc(OCCCCCCCCCCOC(=O)CCCCCCC)c1OCCCCCCCCCCOC(=O)CCCCCCC [Example 100] | 6.17 | 105.9 | 0.121 | 106.4 | 0.07 | – | – | – | – | – | –
15 | CCCCC/C=C\C/C=C\CCCCCCCC(=O)OCCCCOc1cc(CN2CC(O)C2)cc(OCCCCOC(=O)CCCCCCC/C=C\C/C=C\CCCCC)c1 [Example 49] | 5.99 | 111.1 | 0.046 | – | – | – | – | – | – | – | –
16 | CCCCC/C=C\C/C=C\CCCCCCCC(=O)OCCCCOc1cc(CN(CC)CC)cc(OCCCCOC(=O)CCCCCCC/C=C\C/C=C\CCCCC)c1C [Example 55] | 6.37 | 106.9 | 0.043 | 101.9 | 0.10 | – | – | – | – | – | –
17 | CCCCCCCC(=O)OCC(CCCCOc1cc(CN(C)C)cc(OCCCCC(COC(=O)CCCCCCC)COC(=O)CCCCCCC)c1)COC(=O)CCCCCCC [Example 110] | 5.66 | 183.3 | 0.071 | – | – | – | – | – | – | – | –
18 | CCCCC/C=C\C/C=C\CCCCCCCC(=O)OCCCCOc1cc(CN2CCCC2)cc(OCCCCOC(=O)CCCCCCC/C=C\C/C=C\CCCCC)c1 [Example 112] | 6.08 | – | – | 96.1 | 0.1 | – | – | – | – | – | –
